Laboratory results from patent publication US12365928B2, “Scalable biosynthesis of the seaweed neurochemical kainic acid” (The Regents of the University of California, priority 2018, dated 2025).
“Also recorded” adds a separate entry of the source.

Legend:
DsKabA = target: T1, DsKabA (Digenea simplex, UniProt A0A4D6IA24); assay: DsKabA activity and substrate specificity assay (LCMS); assay type: biochemical; conditions: 23° C., 5 h, LCMS (FIG. 8); for turnover to N-prenylated product when L-glutamate is exchanged for another amino acid: 5 mM amino acid, 1 mM DMAPP, 5 mM MgCl2, 20 μM DsKabA
T1 construct: DsKabA p28 For; His6 (N); made in house; host or cells: E. coli BL-21
T1 sequence (A0A4D6IA24 1-439): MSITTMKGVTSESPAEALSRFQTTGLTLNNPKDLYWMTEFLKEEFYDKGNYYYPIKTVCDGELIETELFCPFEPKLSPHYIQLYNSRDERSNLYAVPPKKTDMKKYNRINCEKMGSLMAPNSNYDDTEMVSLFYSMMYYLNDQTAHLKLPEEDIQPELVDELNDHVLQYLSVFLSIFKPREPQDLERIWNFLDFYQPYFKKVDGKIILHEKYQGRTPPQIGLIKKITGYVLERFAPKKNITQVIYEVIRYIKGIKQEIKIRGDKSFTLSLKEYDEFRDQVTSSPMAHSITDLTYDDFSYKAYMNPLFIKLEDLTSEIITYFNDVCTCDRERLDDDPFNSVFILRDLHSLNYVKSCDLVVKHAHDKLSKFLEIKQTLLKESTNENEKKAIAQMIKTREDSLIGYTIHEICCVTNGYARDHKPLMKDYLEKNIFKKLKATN
Experimental: To test DsKabA activity and substrate specificity, a 50 μL reaction containing 5 mM MgCl2, 5 mM amino acid (L-Glu, D-Glu, L-Gln, L-Asp, L-Asn, or Gly), 1 mM prenyl donor (DMAPP or GPP), and 20 μM DsKabA in a buffer of 300 mM KCl and 50 mM HEPES pH 8.0 was incubated at 23° C. for 5 h. One equivalent of 0.1% formic acid in H2O was added and filtered with a VWR PES 3 k 500 μL spin column. The flow through was analyzed by an Agilent Technologies 1200 Series system with a diode-array detector coupled to an Agilent Technologies 6530 accurate-mass Q-TOF LCMS using the following method on a Synergi Polar-RP 4μ 250×4.6 mm column at 0.75 mL/min: 0% B (4.5 min), 0 to 5% B (0.5 min), 5 to 26% B (9 min), 26 to 80% B (9 min), 80 to 100% B (1 min), 100% B (1.5 min), 100 to 0% B (2.5 min), 0% B (2 min), wherein A=0.1% aqueous formic acid, and B=0.1% formic acid in acetonitrile.

[1] = humans in vivo; literature statement; cited from earlier work
[2] = system: ionotropic glutamate receptor (iGluR); conditions: literature statement; cited from earlier work

Compound | turnover to N-prenylated product when L-glutamate is exchanged for another amino acid (DsKabA) | iGluR bioactivity [2] | other results
NCC(=O)O [glycine] | did not produce appreciable amounts of N-prenylated product |  | 
N[C@@H](CC(=O)O)C(=O)O [L-aspartate] | did not produce appreciable amounts of N-prenylated product |  | 
C/C(=C/C=C/[C@@H](C)C(=O)O)[C@H]1CN[C@H](C(=O)O)[C@H]1CC(=O)O [domoic acid] |  |  | excitotoxic / neurological effects [1]: causes severe neurological problems
C=C(C)[C@H]1CN[C@H](C(=O)O)[C@H]1CC(=O)O [kainic acid] |  | ionotropic glutamate receptor (iGluR) agonist; also recorded: agonistic activity | excitotoxic / neurological effects [1]: does not appear to produce excitotoxic effects
N[C@H](CCC(=O)O)C(=O)O [D-glutamate] | diminished turnover |  | 
CC(C)=CCC/C(C)=C/COP(=O)(O)OP(=O)(O)O [GPP] |  |  | product formed when DMAPP is replaced by another prenyl donor (DsKabA; 1 mM prenyl donor with 5 mM L-glutamate, 20 μM DsKabA): formation of N-geranyl-L-glutamic acid (L-NGG)
NC(=O)C[C@H](N)C(=O)O [L-asparagine] | did not produce appreciable amounts of N-prenylated product |  | 
NC(=O)CC[C@H](N)C(=O)O [L-glutamine] | did not produce appreciable amounts of N-prenylated product |  | 
O=C(O)C[C@@H]1[C@@H](C(=O)O)NC[C@@H]1c1ccc(C(=O)O)[nH]c1=O [acromelic acid] |  | iGluR agonistic bioactivity | 
kainic acid lactone |  | iGluR antagonist | 
